{"source": "paper PMC9827864", "about": "“In Situ Inhibitor Synthesis and Screening by Fluorescence Polarization: An Efficient Approach for Accelerating Drug Discovery” (Angewandte Chemie (International Ed. in English), 2022)", "key": {"[1]": {"test_system": "reticulocytes in C57BL/6J mice", "assay": "In vivo reticulocytes increased assay", "design": "species or system mouse", "method": "(§1) A structure of PHD2 in complex with Fe and a 2OG competing inhibitor (PDB ID: 4KBZ) was obtained from PDB website. The structure files of protein and compounds for docking were prepared using the Discovery Studio (DS) 2020 software. A water molecule HOH624, conserved in the active binding site of PHD2, was retained during the docking. Residues of PHD2 around the native ligand (radius = 10 Å) were defined as the binding sites for docking. Subsequently, the ligand was removed; the Fe (II) was retained during the docking. Compounds were docked into the binding sites using GOLD 5.1. Docking procedures were performed using the default setting with 100 genetic algorithm (GA) runs of ligands. […]\n(§2) 17 was preincubated with microsomes from different species (0.5 mg/mL) at 1 μM for 5 min at 37 °C in 100 mM PBS buffer (pH 7.4). […] The samples were centrifuged at 5000 rpm f or 10 min; the supernatants were then analyzed by HPLC. […]\n(§3) Representative compounds and Roxadustat were formulated in normal saline solution. […] Subsequently, these samples were analyzed for reticulocytes in the center for new drug safety evaluation and research of China Pharmaceutical University (ADVIA 2120 hematology system). […]\n(§4) Plasma EPO was evaluated using the erythropoietin quantikine ELISA kit for mice (MEP00B). […]\n(§5) in normal saline solution. […] Plasma was collected by centrifugation at 3000 rpm, these plasmas were detected by E PO […]"}, "[2]": {"test_system": "plasma EPO in C57BL/6J mice", "assay": "In vivo EPO increased assay (plasma EPO ELISA)", "design": "species or system mouse", "conditions": "C57BL/6J mice, 10, 20 and 50 mg kg−1 po, 4 hours", "method": "as §1, §2, §3, §4, §5"}, "Plasma stability (rat)": {"assay": "Plasma stability (rat)", "format": "in vitro ADME", "conditions": "100 μM", "method": "as §1, §2, §3, §4, §5"}, "[3]": {"assay": "Metabolic stability in mouse liver microsomes", "format": "in vitro ADME"}, "[4]": {"test_system": "EPO gene expression in Hep3B cells", "assay": "RT-qPCR assay of EPO mRNA", "format": "cell-based, human", "conditions": "reference gene HPRT"}, "ICR mice [5]": {"test_system": "ICR mice", "assay": "Subacute oral toxicity assay", "format": "in vivo", "method": "6. Subacute and acute oral toxicity assay\nThe experimental mice (SPF, ICR, male and female) were obtained from Nantong University (permit number: SCXK (Su) 2019-0001). All animal related experiments were conducted under China Pharmaceutical University guidelines (certification of using the housing facility for laboratory animals: SYXK (Su) 2018-0019) IACUC approved protocols in compliance with the guide for the care and use of laboratory animals (number: 202013705).\n6.1 Subacute oral toxicity assay\nICR mice were divided into 8 groups (n = 6), including 15 mg·kg-1, 50 mg·kg-1, 100 mg·kg-1 and vehicle groups for males and females, respectively. […] The body weight of the mice was recorded. […]\nExperimental mice were treated with 17 through oral administration once. Body weight and the heart, kidney, liver, spleen, and lung weight were recorded. Blood was collected, and the samples were analyzed by blood biochemistry assays (CRE, AST, ALT, BUN).\nA solution of aldehyde B82 (60 μL, 0.5 M, DMSO-d6), 4-methoxyaniline (2 μL, 6.0 M, DMSO -d6), mesitylene (100 μL, 0.1 M, DMSO - d6), and acylhydrazide A3 (100 μL, 0.1 M, DMSO -d6) was added to a mixture of DMSO -d6 (188 μL) and FP buffer D 2O (50 μL), in a 5 mm NMR tube; following incubation at room temperature, the sample was evaluated by a Bruker AV-400 instrument. […]"}, "ICR mice [6]": {"test_system": "ICR mice", "assay": "Acute oral toxicity assay", "format": "in vivo", "conditions": "400 mg kg−1 oral, once"}, "[7]": {"assay": "Acute oral toxicity assay", "format": "in vivo", "conditions": "both sexes, mouse, in vivo, 400 mg·kg-1; ICR mice, single oral administration"}}, "note": "Entries after “also recorded” stand apart in the source; their conditions may differ.", "data": [{"smiles": "O=C(N/N=C/c1cccc(O)c1Cl)c1cnc(-c2cccnn2)[nH]c1=O", "note": "[compound 17]", "values": [{"measurement": "reticulocyte induction", "setting": "[1]; C57BL/6J male mice, 20 mg kg−1 po, three administrations, 72 h", "value": "superior with respect to inducing reticulocytes compared to the other tested ISISS compounds"}, {"measurement": "changes in reticulocytes, multiple doses", "setting": "[1]; C57BL/6J mice, 5, 10 and 20 mg kg−1 po", "value": "dose‐dependent increase in reticulocytes"}, {"measurement": "plasma EPO response", "setting": "[2]", "value": "dose‐dependent induction of EPO, similarly to Roxadustat"}, {"measurement": "plasma stability", "setting": "Plasma stability (rat)", "value": "stable in rat plasma"}, {"measurement": "compound present (remaining) in liver microsomes", "setting": "[3]; after 50 min, 1 μM, 0.5 mg/mL", "value": "> 80", "unit": "%"}, {"measurement": "half-life at 1 μM", "setting": "[3]; pH 7.4, read-out: t1/2 in liver microsomes", "value": "> 1.67", "unit": "h"}, {"measurement": "EPO mRNA expression by RT-qPCR", "setting": "[4]", "value": "increases EPO mRNA in a concentration‐dependent manner with comparable efficiency to Roxadustat"}, {"measurement": "H&E staining of major organs", "setting": "ICR mice [5]; 100 mg kg−1 oral, alternate days for two weeks", "value": "normal architecture comparable to the vehicle"}, {"measurement": "subacute oral toxicity findings (behavior, body weight, organ/body weight ratio, BUN, ALT, AST, CRE)", "setting": "ICR mice [5]; oral, every other day for 14 days, 10 or 15, 50 and 100 mg kg−1", "value": "no obvious abnormality; also recorded: did not exhibit any treatment-associated adverse effects"}, {"measurement": "acute oral toxicity findings (body weight, organ/body weight ratio, ALT, AST, BUN, CRE)", "setting": "ICR mice [6]", "value": "no obvious abnormality"}, {"measurement": "LD50", "setting": "[7]", "value": "> 400", "unit": "mg/kg"}]}]}
